Results published in patent US6967100B2, “Pancreatic islet cell growth factors” (The Walter and Eliza Hall Institute of Medical Research, priority 2000, dated 2005).

Tests used:
[1] = test system: 13.5 dpc fetal mouse pancreas cells; assay: Low cell density serum-free culture of 13.5 dpc fetal mouse pancreatic cells: total and insulin-positive β cell number; assay type: cell-based; details: for laminin-1 induced/mediated β cell differentiation: with laminin-1, four days
Procedure: (§1) Dissociated fetal pancreas cells were prepared from 13.5 dpc CBA mice. Pregnant mice at 13.5 dpc were killed by cervical dislocation and fetuses collected into ice cold sterile mouse tonicity phosphate-buffered saline (MTPBS). Fetal pancreata were harvested under an Olympus dissection microscope into RPMI 1640 medium and dissociated in a shaking water bath at 37° C. for 11 mins in Ca^2+/Mg^2+-free PBS containing 0.5% v/v trypsin/EDTA as described for testis by Bucci et al. (1986). After dissociation, trypsin was inactivated by addition of 8% w/v bovine serum albumin (BSA, fraction V) (Sigma, St. Louis, USA). The tissue was aspirated several times in a pipette, passed through a 27 gauge needle to make a single cell suspension and then rinsed in 10 μg/ml DNAse I (Promega, Madison, USA) in RPMI 1640 for 10 mins to reduce cellular aggregates. Cell suspensions were filtered through a 70-100 μm steel mesh, centrifuged at 400×g for 5 mins and the supernatant discarded. The cell pellet was resuspended in HYBRIDOMA medium and stored on ice. Cells were counted under a haemocytometer and viability was determined by exclusion of 0.2% v/v trypan blue dye. Pancreatic cells were plated in 8 chamber slides (Nunc) at 1.5×10^4 cells/well in 0.3 ml HYBRIDOMA medium 500 UI/ml penicillin and 500 μg/ml streptomycin. The cells were cultured in 10% v/v CO2, 90% v/v air at 37° C. with 100% humidity for four days in the presence of factors such as laminin-1 and BMPs.
Fetuses at 15.5 and 18.5 dpc from homozygous (−/−) or heterozygous (+/−) α6 integrin gene targeted (Georges-Labouesse et al., 1996) or wild type mice were fixed overnight in Bouin ? s solution. After standard dehydration processing, fetuses were embedded into paraffin and sectioned at 7 μm. Cultured pancreatic cells were washed three times with warm mouse tonicity phosphate buffered saline (MT-PBS) and fixed with 4% paraformaldehyde (PFA) for 10 mins. Endogenous peroxidase was blocked by 3% v/v H2O2 in methanol for 8 mins. Prior to antibody staining, non-specific protein binding was blocked by incubation for at least 30 mins with MT-PBS containing 2% w/v bovine serum albumin or 2% v/v normal rabbit serum. Controls were performed by replacing first antibody with pre-immune serum from the appropriate species. Cell were incubated with primary antibodies for 90 mins at room temperature, followed by three thorough washes with MT-PBS. Horseradish peroxidase-conjugated rabbit anti-guinea pig or swine anti-rabbit immunoglobulins (Dako) were added for 30 mins at room temperature followed by thorough washes. Immunoperoxidase was detected with 3,3′-diamninobenzidine/H2O2 for 4-8 mins, and slides were counterstained with haematoxylin.
Immunoperoxidase positive and negative cells were quantitated in the central strip of each culture chamber (a 90×90 mm square) under a microscope equipped with an eyepiece graticule (Olympus, Japan) at ×40 power and calibrated with a micrometer (Olympus). All data are presented as mean±s.e.m of at least three independent experiments.

[2] = test system: 13.5 dpc fetal mouse pancreas cells; assay: Colony formation of 13.5 dpc fetal mouse pancreas cells cultured with BMPs and laminin-1; assay type: cell-based; details: 13.5 dpc fetal pancreas cells
Procedure: as §1
(§2) After four days in culture, cells were washed twice with warm MT-PBS and fixed with a 4% v/v paraformaldehye for 10 mins. In some cases, 100 μM BrdU was added to label proliferating cells 12 hours before fixation and detection with monoclonal antibody to BrdU and FITC-labelled rabbit anti-mouse immunoglobulin. For immunoperoxidase staining, endogenous peroxidase was blocked by 3% v/v H2O2 in methanol for 8 mins and, prior to addition of primary antibody, non-specific protein binding was blocked by incubation for at least 30 mins in MTPBS containing 2% w/v BSA or 2% v/v normal rabbit serum. Controls were performed by replacing primary antibody with pre-immune serum from the appropriate species. Tissue sections or cells were incubated with primary antibodies for 90 min RT, followed by three thorough washes with MTPBS. For immunoperoxidase staining, horseradish peroxidase-conjugated rabbit anti-guinea pig, swine anti-rabbit or rabbit anti-mouse immunoglobulins (Dako) diluted 1:80 were added for 30 mins at RT followed by thorough washes; colour was developed with 3,3′-diaminobenzidine/H2O2 for 4-8 mins and slides counterstained with haematoxylin.
A pancreatic cell colony was defined as a spherical collection of 20 cells. Colonies were counted under a×10 power objective with an eyepiece graticule.

[3] = test system: E15.5 CBA mouse fetal pancreas cells; assay: Cystic colony formation of E15.5 fetal mouse pancreas cells in laminin-1 overlay culture; assay type: cell-based
Procedure: Pancreata were dissected from embryonic day (E)15.5 CBA mouse fetuses and dissociated into single cells as described (Jiang et al., 1999). Briefly, dissected pancreas was digested with trypsin/EDTA for 15 minutes at 37° C. in a shaking water bath. Cells were counted in a haemocytometer and viability determined by trypan blue dye exclusion. Each fetal pancreas yielded 50,000 viable cells (48,509±11,299, n=14). Dissociated cells were plated in 8 well chamber slides (Nunc, Naperville, USA) at 7.5×10^4 cells/well in 0.3 ml AIM V medium supplemented with N-2 (1:100, Gibco BRL Life Technologies, Gaithersburg, USA), 500 UI/ml penicillin and 500 μg/ml streptomycin. Laminin-1 (160 μg/ml), purified from murine Engelbreth-Holm-Swarm tumor basement membrane (Becton Dickinson Labware, Bedford, USA), was overlayed on cells in the presence of various growth factors. Cultures were incubated in 10% CO2 90% air at 37° C., for up to 6 days. Recombinant human BMP 6 and BMP 5, recombinant human TGF-β1 and recombinant activin A were purchased from R&D Systems (Minneapolis, USA). These factors, dissolved at a concentration of 10 ng/μl in mouse tonicity phosphate buffered saline (PBS) containing 0.1% w/v bovine serum albumin (BSA), were added at the start of culture. Phase contrast images of colonies were photographed with Olympus IX70 digitized camera.
Colony formation was assessed at day 6 of culture. A colony was defined as a cellular sphere ≧30 μm in diameter, which contained more than 20 cells. The number of colonies per well was counted directly under a inverted microscope at ×10. Colony counts were performed using a blind design.

[4] = test system: 13.5 dpc fetal mouse pancreas cells; assay: BrdU labelling of proliferating cells in 13.5 dpc fetal mouse pancreas cell culture; assay type: cell-based; details: 100 μM BrdU, laminin-1 (200 μg/ml), with or without GoH3, days 1-4
Procedure: as §2, with “For immunoperoxidase staining, horseradish peroxidase-conjugated rabbit anti-guinea pig, swine anti-rabbit or rabbit anti-mouse immunoglobulins (Dako) diluted 1:80 were added for 30 mins at RT followed by thorough washes; colour was developed with 3,3′-diaminobenzidine/H2O2 for 4-8 mins and slides counterstained with haematoxylin.” left out
In some cultures, 100 μM BrdU (Sigma) was included to label proliferating cells; cells were fixed by 4% PFA at days 1, 2, 3 and 4 for insulin and BrdU double immunofluorescence staining. […] Slides were observed and photomicrographed under a Zeis Axiopot fluorescence microscope.

[5] = test system: α6 integrin and α-DG; assay: Indirect immunofluorescence for α6 integrin and α-DG expression in cultured fetal pancreas cells; assay type: cell-based, mouse; details: day 2 (laminin-1 alone: day 2 and four)
Procedure: In some cultures, 100 μM BrdU (Sigma) was included to label proliferating cells; cells were fixed by 4% PFA at days 1, 2, 3 and 4 for insulin and BrdU double immunofluorescence staining. Fetuses were directly snap-frozen in liquid nitrogen, section at 8 μm, the sections air-dried for 40-60 mins and fixed in cold (−20° C.) acetone for 10 mins. Pre-treatment and primary antibody incubations were as described above, followed by incubation with Texas Red-conjugated goat anti-guinea pig immunoglobulins (Vector Laboratories, Burlingame, USA) or fluorescein isothiocyanate (FITC)-conjugated rabbit anti-mouse, -rat or -goat or swine anti-rabbit immunoglobulins (Dako) for 30 mins at room temperature and three thorough washes. Slides were observed and photomicrographed under a Zeis Axiopot fluorescence microscope.

C=C1[C@@H](C)[C@H]2[C@H](Cc3ccccc3)NC(=O)[C@]23[C@H](OC(C)=O)/C=C/[C@@](C)(O)C(=O)[C@@H](C)C/C=C/[C@H]3[C@@H]1O [Cytochalasin D]
laminin-1 induced/mediated β cell differentiation [1]: increased

COc1cccc(-c2cc(=O)c3ccccc3o2)c1N [PD98059]
laminin-1 induced/mediated β cell differentiation [1]: increased

O=c1c(-c2ccc(O)cc2)coc2cc(O)cc(O)c12 [genistein]
laminin-1 induced/mediated β cell differentiation [1]: did not affect

CO[C@H]1[C@@H](OC)C[C@H](C)[C@@H](OC)C2=CC(=O)C=C(NC(=O)/C(C)=C/C=C\[C@H](OC)[C@@H](OC(N)=O)/C(C)=C/[C@@H]1C)C2=O [herbimycin A]
laminin-1 induced/mediated β cell differentiation [1]: did not affect

EGF: candidate growth factor (NSDSECPLSHDGYCLHDGVCMYIEALDKYACNCVVGYIGERCQYRDLKWWELR; Epidermal growth factor; UniProt P01133 971-1023, looked up)
proliferation or colony formation, candidate growth factors individually [2]: unable to promote proliferation or colony formation

HGF: candidate growth factor
proliferation or colony formation, candidate growth factors individually [2]: unable to promote proliferation or colony formation

PYY: candidate growth factor
proliferation or colony formation, candidate growth factors individually [2]: unable to promote proliferation or colony formation

TGF-β1: recombinant human TGF-β1 from R&D Systems
BMP 6-induced colony formation ([3]; 100 ng/ml against BMP 6 10 ng/ml, laminin-1 160 μg/ml, p<0.01 (FIG. 10B)): antagonized | colony formation relative to laminin-1 alone ([3]; 100 ng/ml, laminin-1 160 μg/ml (FIG. 10A)): suppressed colony formation to levels below that observed with laminin-1 alone | potency of inhibition of BMP 6-induced colony numbers relative to Activin A ([3]; dose-dependency of inhibition, BMP 6 10 ng/ml (FIG. 10C)): 100 fold

fibronectin
inhibition of pancreatic / β cell survival ([1]; four days culture, compared to medium alone): no effect

gastrin
proliferation or colony formation, candidate growth factors individually [2]: unable to promote proliferation or colony formation

heparin
effect on the GoH3-induced increase in β cell differentiation ([1]; heparin at 100 μM, laminin-1 plus GoH3): blocked the effect of α6 integrin antibody GoH3 | number of total and β cells ([1]; with laminin-1, heparin at 100 μM, p<0.05): significantly decreased

laminin-1: heterotrimeric matrix glycoprotein prepared from murine Englebreth-Holm-Swarm tumour cell basement membrane
glucagon-positive cell number ([1]; in the presence of soluble laminin-1): unchanged | total cell number per well ([1]; laminin-1 without or with 40 μg/ml GoH3, mean±s.e.m): 4016±650 | β cell number per well ([1]; laminin-1 without or with 40 μg/ml GoH3, mean±s.e.m n=3): 2265±240 | increase in number of insulin-positive β cells ([1]; soluble laminin-1, four days culture): 60 fold | BrdU-positive cells [4]: 2.5% | proportion of cells positive for both α6 integrin and α-DG [5]: approximately 10%
